According to US6168809A, “Alkaline-earth metal salt for the treatment of ocular or palpebral pruritus and dysesthesia” (Societe l'Oreal S.A., priority 1995, dated 2001):

How the values were obtained:
[1] = tested on: release of substance P; experiment: release of substance P caused by antidromic stimulation of the sciatic nerve, visualized by Evans blue staining; assay type: in vivo
From the text: The test consisted in determining the activity of various compounds on the release of substance P, which is caused by antidromic stimulation of the sciatic nerve. This release is visualized by staining with a stain (Evans blue). The greater the quantity of substance P released, the more intense the colour. In other words, the greater the inhibitory effect of the substance P antagonist on this release, the less intense the colour.

[2] = tested on: TNF-alpha secretion by human monocytes (line U937); experiment: inhibition of secretion of TNF-alpha induced by PMA in human monocytes (line U937); assay type: cell-based; settings: for % inhibition of secretion of TNF-alpha induced by PMA: PMA 10 nM, 48 hours, 37° C., mean of 3 measurements; for inhibition of TNF-alpha: in words
Experimental: This test is performed on human monocytes (line U937) stimulated by a phorbol ester (PMA) according to the method described by Schindler et al. (Correlations and interactions in the production of interleukin-6 (IL-6), IL-1, and Tumor Necrosis Factor (TNF) in human blood mononuclear cells: IL-6 suppresses IL-1 and TNF. Blood 75: 40-47 (1990)).
The phorbol ester (PMA) naturally stimulates the synthesis and/or the secretion of TNF-alpha by human monocytes in culture.
The activity of the molecules is evaluated according to their capacity to reduce or even suppress this TNF-alpha secretion.
The cells (monocytes) are incubated in the presence of PMA at the concentration of 10 nM for 48 hours at 37° C. The quantities of TNF-alpha secreted are quantified by immunoenzymatic assay (ECA) with the aid of commercially available kits.
Each molecule is tested at 3 different concentrations (10^-5, 10^-4 and 10^-3 M) and in each experiment, a reference molecule (dexamethasone) is studied at 7 concentrations as internal standard.
The results are expressed as percentage of inhibition relative to the positive control (without test molecule) after subtracting the background noise. A recapitulative table groups together the mean inhibitory effects obtained with the compounds. (The results are expressed as % inhibition; they are the mean of 3 measurements).

| Compound | inhibitory activity on the release of substance P ([1]; Table 1, in words, salts at the same concentration) | inhibitory activity on the release of substance P ([1]; Table 2, in words, calcium salt at a higher concentration level) | % inhibition of secretion of TNF-alpha induced by PMA ([2]; 10^-3 M) | % inhibition of secretion of TNF-alpha induced by PMA ([2]; 10^-4 M) | % inhibition of secretion of TNF-alpha induced by PMA ([2]; 10^-5 M) | inhibition of TNF-alpha [2] | % inhibition relative to the control ([1]; Table 2, 3 μmol) |
| --- | --- | --- | --- | --- | --- | --- | --- |
| O=[N+]([O-])[O-].O=[N+]([O-])[O-].[Ca+2] [Ca(NO3)2, calcium nitrate] | no activity at all | no activity at all |  |  |  |  |  |
| [Ca+2].[Cl-].[Cl-] [CaCL2.7H2 O, calcium chloride] |  |  | 67% | 22% | 19% | inhibitors of TNF-alpha |  |
| [Cl-].[Cl-].[Mg+2] [Mg Cl2, magnesium chloride] |  |  | 70% | 12% |  | inhibitors of TNF-alpha |  |
| O=[N+]([O-])[O-].O=[N+]([O-])[O-].[Sr+2] [Sr(NO3)2, strontium nitrate] |  |  | 75% | 28% |  | inhibitors of TNF-alpha | 71% |
| O.O.O.O.O.O.O.[Cl-].[Cl-].[Sr+2] [SrCl2 7H2O] |  |  | 54% |  | 14% |  |  |
| [Cl-].[Cl-].[Sr+2] [SrCl2, strontium chloride] |  |  |  |  |  | inhibitors of TNF-alpha |  |
